One test addresses JAK 2 (Homo sapiens, UniProt O60674). As to the kind of experiment: Biochemical potency on JAK2, TR-FRET LANCE Ultra kinase assay (examples 1-99). The settings on record: ATP at Km (0.7 μM), read-out: JAK2 inhibitory activity (pIC50 class) (converted). On the procedure: (§1) The objective of this study was to assess the capability of compounds to inhibit all 4 JAK isoforms activity in a cell-free environment. Assay for JAK 1, JAK 2, JAK 3 and TYK2 were performed by Time-resolved fluorescence resonance energy transfer (TR-FRET) technology. It consists in the interaction of two labelled binding partners detected by the energy transfer from an excited donor to an acceptor dye and measurement of light emission by the acceptor dye. LANCE Ultra kinase assay was used. In presence of JAK 1, JAK 2, JAK 3 and TYK2 kinases and ATP (corresponding to Km), the ULight peptide substrate (LANCE Ulight-JAK-1 (Tyr1023) Peptide, Perkin Elmer, TRF0121) is phosphorylated. It is then captured by Eu-anti-phospho-substrate antibody (LANCE Eu-W1024 Anti-phosphotyrosine (PT66), Perkin Elmer, AD0069), which bring the Eu-chelate donor and ULight acceptor dyes into close proximity. Upon excitation at 320 nm, the Eu-chelate transfers its energy to the ULight dye, resulting in a fluorescent light emission at 665 nm.
(§2) Serial dilutions of compounds in pure DMSO are prepared from 10 mM DMSO stock solutions. Compounds were tested in 384-well plate for 11 consecutive 5-fold dilutions starting from 20 μM highest concentration (20 μM-[…]). 200 nL of compound were transferred from mother plate to test plate by using Mosquito (TTP labtech). Assay was performed in 384-well Perkin Elmer test plate in 20 μL assay volume (kinase reaction) and 40 μL total volume (stopping reagent and antibody detection reagents). In 10 μL of substrate solution (peptide+ATP) 30/50/20/10 nM of peptide and 20/0.7/0.2/12 μM of ATP were added for JAK 1, JAK 2, JAK 3 and TYK2 respectively. 10 μL of enzyme solution was added to kinase reaction at these concentrations: 0.15/0.083/0.025/0.144 ng/μL of JAK 1, JAK 2, JAK 3 and TYK2 respectively. After shaking and 1.5 h of incubation at r.t., 20 μL of Stop (10 μL EDTA) and Detection mixture (10 μL Europium-anti-phospho antibody, final: 0.5 nM) were added. Reading was performed after 1 h of incubation on a EnVision 2104 reader (Perkin Elmer).
(§3) Calculation of IC50 data, curves and QC analysis was performed by using Excel tool and GraphPadPrism software, v9. Briefly, individual concentration-effect curves are generated by plotting the logarithm of the tested concentration of tested compounds (X) vs. corresponding percent inhibition values (Y) using least squares (ordinary) fit. Best fit IC50 values are calculated using Log(inhibitor) vs. normalized response—Variable slope equation, where Y=100/(1+10^((Log IC50−X)*HillSlope)). QC criteria parameters (Z′, S:B, R2, HillSlope) were checked for every IC50 curve. Calculation of IC50 data, curves and QC analysis were made using Excel tools and GraphPadPrism software. QC criteria parameters: Z′≥0.5, Hill Slope range 0.5 to 5, S:B>2.

A further test concerns the target T1, JAK 3 (Homo sapiens, UniProt P52333).
T1 sequence (P52333 1-1124): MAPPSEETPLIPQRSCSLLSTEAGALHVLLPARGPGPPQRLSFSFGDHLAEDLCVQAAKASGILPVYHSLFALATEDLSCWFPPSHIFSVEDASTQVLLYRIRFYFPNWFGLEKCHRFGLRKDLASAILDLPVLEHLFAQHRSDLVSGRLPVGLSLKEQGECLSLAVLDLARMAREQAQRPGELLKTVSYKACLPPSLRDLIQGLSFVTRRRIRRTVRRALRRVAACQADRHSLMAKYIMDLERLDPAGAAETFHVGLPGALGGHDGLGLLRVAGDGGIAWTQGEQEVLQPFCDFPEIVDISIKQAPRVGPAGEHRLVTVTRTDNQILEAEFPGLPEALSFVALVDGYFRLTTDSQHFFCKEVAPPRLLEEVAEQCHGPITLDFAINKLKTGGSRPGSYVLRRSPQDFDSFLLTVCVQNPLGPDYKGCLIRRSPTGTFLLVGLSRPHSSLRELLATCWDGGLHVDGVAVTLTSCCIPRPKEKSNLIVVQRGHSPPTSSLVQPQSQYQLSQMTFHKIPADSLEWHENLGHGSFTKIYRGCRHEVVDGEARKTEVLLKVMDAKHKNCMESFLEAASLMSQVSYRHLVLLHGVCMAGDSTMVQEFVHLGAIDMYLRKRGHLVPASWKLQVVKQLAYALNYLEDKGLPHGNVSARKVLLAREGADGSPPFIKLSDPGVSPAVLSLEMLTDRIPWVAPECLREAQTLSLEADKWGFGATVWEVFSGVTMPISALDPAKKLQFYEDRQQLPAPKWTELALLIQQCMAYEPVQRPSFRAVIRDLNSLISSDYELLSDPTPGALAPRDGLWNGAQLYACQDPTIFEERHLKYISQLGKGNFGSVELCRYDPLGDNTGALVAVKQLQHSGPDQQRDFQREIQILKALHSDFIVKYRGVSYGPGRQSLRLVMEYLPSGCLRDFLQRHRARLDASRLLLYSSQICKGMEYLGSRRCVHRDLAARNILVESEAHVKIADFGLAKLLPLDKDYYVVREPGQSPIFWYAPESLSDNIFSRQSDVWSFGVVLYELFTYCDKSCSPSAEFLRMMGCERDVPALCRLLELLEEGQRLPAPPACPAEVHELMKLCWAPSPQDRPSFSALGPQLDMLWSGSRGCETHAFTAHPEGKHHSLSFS
The test is described as follows: Biochemical potency on JAK3, TR-FRET LANCE Ultra kinase assay (examples 1-99). The settings on record: ATP at Km (0.2 μM), read-out: JAK3 inhibitory activity (pIC50 class) (converted). Here is the method: as §1, §2, §3
For orientation: Time-resolved FRET reads energy transfer from a long-lived donor to a nearby acceptor.

In the next test the target is JAK 1 (Homo sapiens, UniProt P23458). The test is described as follows: Biochemical potency on JAK1, TR-FRET LANCE Ultra kinase assay (examples 1-99). Conditions: ATP at Km (20 μM), read-out: JAK1 inhibitory activity (pIC50 class) (converted). On the procedure: as §1, §2, §3
Another test addresses TYK2 (Homo sapiens, UniProt P29597). The test is described as follows: Biochemical potency on Tyk2, TR-FRET LANCE Ultra kinase assay (examples 1-99). Conditions: ATP at Km (12 μM), read-out: Tyk2 inhibitory activity (pIC50 class) (converted). On the procedure: as §1, §2, §3

Chain of TYK2 (P29597 whole entry): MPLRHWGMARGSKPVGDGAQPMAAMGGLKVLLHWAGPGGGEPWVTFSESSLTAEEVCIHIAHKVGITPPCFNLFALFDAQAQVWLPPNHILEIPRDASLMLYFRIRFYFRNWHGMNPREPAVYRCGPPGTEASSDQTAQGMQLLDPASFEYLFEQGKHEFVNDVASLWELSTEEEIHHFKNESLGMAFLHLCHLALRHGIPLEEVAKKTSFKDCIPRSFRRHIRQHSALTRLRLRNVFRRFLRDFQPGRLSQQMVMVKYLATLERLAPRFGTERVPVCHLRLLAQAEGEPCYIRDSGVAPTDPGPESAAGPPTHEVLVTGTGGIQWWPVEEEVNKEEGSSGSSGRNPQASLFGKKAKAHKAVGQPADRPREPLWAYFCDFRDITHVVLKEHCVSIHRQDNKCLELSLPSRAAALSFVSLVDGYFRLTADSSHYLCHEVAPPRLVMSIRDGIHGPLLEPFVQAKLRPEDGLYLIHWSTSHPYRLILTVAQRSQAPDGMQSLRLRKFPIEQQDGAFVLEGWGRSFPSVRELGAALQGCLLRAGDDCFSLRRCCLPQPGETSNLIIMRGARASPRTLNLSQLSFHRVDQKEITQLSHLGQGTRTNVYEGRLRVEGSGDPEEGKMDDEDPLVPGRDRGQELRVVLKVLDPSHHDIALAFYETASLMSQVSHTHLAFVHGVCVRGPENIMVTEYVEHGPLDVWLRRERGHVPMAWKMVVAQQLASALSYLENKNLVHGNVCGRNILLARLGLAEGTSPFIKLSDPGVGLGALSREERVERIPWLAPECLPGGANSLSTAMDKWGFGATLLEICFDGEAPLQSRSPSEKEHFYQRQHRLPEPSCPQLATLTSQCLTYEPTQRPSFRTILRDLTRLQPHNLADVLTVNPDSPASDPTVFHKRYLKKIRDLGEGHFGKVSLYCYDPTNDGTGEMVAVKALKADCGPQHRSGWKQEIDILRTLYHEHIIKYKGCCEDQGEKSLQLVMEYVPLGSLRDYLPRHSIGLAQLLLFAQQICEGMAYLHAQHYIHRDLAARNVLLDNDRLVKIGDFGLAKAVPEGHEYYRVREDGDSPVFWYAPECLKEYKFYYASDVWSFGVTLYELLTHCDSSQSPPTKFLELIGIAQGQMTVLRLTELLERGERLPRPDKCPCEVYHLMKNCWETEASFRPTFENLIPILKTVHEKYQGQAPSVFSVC
Chain of JAK 2 (O60674 whole entry, canonical isoform): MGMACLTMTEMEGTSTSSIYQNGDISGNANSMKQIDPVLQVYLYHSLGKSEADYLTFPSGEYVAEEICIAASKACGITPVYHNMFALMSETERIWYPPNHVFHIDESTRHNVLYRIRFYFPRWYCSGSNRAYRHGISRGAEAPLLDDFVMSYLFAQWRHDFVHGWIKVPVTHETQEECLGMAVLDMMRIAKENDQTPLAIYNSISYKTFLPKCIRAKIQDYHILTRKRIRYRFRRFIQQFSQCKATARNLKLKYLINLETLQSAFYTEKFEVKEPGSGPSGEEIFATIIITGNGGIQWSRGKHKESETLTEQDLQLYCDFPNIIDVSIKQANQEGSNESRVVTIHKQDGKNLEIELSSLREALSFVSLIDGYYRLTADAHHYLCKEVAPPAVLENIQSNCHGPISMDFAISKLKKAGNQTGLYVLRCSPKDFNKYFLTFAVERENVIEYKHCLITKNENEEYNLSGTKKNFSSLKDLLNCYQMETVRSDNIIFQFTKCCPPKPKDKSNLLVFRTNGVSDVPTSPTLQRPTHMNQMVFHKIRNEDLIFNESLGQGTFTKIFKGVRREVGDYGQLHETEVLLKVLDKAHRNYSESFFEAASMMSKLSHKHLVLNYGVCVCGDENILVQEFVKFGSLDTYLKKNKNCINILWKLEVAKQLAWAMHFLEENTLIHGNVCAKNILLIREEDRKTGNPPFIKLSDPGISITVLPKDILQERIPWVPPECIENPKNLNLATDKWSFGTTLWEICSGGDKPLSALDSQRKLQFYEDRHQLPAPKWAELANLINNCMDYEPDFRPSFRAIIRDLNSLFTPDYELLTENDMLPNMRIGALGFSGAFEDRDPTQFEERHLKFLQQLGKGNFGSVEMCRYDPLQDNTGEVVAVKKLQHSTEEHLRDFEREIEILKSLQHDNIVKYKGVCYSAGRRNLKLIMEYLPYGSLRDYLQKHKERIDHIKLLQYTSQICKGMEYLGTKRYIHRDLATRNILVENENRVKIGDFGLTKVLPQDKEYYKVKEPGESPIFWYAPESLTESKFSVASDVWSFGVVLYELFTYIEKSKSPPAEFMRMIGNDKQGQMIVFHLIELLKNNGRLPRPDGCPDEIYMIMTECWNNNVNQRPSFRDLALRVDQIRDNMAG
Chain of JAK 1 (P23458 whole entry): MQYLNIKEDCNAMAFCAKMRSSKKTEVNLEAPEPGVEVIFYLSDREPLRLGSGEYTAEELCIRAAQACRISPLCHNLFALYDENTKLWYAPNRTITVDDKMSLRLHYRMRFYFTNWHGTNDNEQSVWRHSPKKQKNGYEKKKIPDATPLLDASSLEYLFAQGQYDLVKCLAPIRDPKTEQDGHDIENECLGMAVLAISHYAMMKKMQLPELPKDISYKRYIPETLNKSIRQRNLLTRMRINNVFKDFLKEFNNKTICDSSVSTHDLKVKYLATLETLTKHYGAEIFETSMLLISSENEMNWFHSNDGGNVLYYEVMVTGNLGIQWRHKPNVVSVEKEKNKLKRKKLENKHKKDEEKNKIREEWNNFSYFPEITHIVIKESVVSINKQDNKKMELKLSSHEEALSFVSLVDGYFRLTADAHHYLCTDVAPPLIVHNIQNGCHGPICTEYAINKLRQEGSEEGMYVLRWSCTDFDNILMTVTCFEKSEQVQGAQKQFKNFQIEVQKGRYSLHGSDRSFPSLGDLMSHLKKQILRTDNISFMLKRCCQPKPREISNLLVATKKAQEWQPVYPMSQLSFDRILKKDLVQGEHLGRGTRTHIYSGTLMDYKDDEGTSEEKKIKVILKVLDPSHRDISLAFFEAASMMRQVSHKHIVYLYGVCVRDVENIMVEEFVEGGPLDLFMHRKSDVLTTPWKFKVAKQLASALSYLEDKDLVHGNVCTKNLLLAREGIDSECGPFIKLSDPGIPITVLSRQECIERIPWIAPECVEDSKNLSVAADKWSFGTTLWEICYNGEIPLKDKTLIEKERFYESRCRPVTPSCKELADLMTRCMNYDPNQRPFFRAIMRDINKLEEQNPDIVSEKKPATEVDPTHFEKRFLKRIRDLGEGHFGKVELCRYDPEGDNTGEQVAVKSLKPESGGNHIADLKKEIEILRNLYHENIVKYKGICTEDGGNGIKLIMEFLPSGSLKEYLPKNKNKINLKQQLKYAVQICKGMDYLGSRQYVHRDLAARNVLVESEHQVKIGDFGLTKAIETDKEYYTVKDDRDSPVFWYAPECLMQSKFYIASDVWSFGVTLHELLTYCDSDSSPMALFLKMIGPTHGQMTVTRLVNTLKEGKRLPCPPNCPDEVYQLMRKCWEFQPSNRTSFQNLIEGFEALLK

For `COc1ccc(F)cc1-n1nc(C)c2cnc(-c3cnn4cccnc34)cc21` [Example 1, 1-(5-fluoro-2-methoxyphenyl)-3-methyl-6-(pyrazolo[1,5-a]pyrimidin-3-yl)-1H-pyrazolo[4,3-c]pyridine], the IC50 at JAK 2 is ≤ 5.01 nM; on JAK 3, 5.01 to 50.1 nM; at JAK 1, 5.01 to 50.1 nM; on TYK2, 5.01 to 50.1 nM.
Consider `COc1ccc(Cl)cc1-n1nc(C)c2cnc(-c3cnn4cccnc34)cc21` [Example 2, 1-(5-chloro-2-methoxyphenyl)-3-methyl-6-(pyrazolo[1,5-a]pyrimidin-3-yl)-1H-pyrazolo[4,3-c]pyridine], for which the IC50 is ≤ 5.01 nM at JAK 2, 5.01 to 50.1 nM on JAK 3, ≤ 5.01 nM at JAK 1 and 5.01 to 50.1 nM at TYK2.
`COc1ccc(C(F)F)cc1-n1nc(C)c2cnc(-c3cnn4cccnc34)cc21` [Example 3, 1-(5-(difluoromethyl)-2-methoxyphenyl)-3-methyl-6-(pyrazolo[1,5-a]pyrimidin-3-yl)-1H-pyrazolo[4,3-c]pyridine]: the IC50 on JAK 2 is ≤ 5.01 nM; at JAK 3 it was 5.01 to 50.1 nM; on JAK 1, 5.01 to 50.1 nM; on TYK2, 5.01 to 50.1 nM.
Turning to `COc1ccc(C(F)(F)F)cc1-n1nc(C)c2cnc(-c3cnn4cccnc34)cc21` [Example 4, 1-(2-methoxy-5-(trifluoromethyl)phenyl)-3-methyl-6-(pyrazolo[1,5-a]pyrimidin-3-yl)-1H-pyrazolo[4,3-c]pyridine], the IC50 at JAK 2 is ≤ 5.01 nM; at JAK 3, 5.01 to 50.1 nM; at JAK 1, 5.01 to 50.1 nM; at TYK2, > 50.1 nM.
Regarding `CSc1ccc(Cl)cc1-n1nc(C)c2cnc(-c3cnn4cccnc34)cc21` [Example 5, 1-(5-chloro-2-(methylthio)phenyl)-3-methyl-6-(pyrazolo[1,5-a]pyrimidin-3-yl)-1H-pyrazolo[4,3-c]pyridine], the IC50 on JAK 2 is ≤ 5.01 nM; at JAK 3 it was 5.01 to 50.1 nM; on JAK 1, 5.01 to 50.1 nM; at TYK2, 5.01 to 50.1 nM.
On to `Cc1nn(-c2cc(Cl)ccc2SC(F)F)c2cc(-c3cnn4cccnc34)ncc12` [Example 6, 1-(5-chloro-2-((difluoromethyl)thio)phenyl)-3-methyl-6-(pyrazolo[1,5-a]pyrimidin-3-yl)-1H-pyrazolo[4,3-c]pyridine], for which the IC50 at JAK 2 is 5.01 to 50.1 nM; on JAK 3, ≤ 5.01 nM; at JAK 1, 5.01 to 50.1 nM; at TYK2, 5.01 to 50.1 nM.
`Cc1nn(-c2cc(Cl)ccc2OC2CC2)c2cc(-c3cnn4cccnc34)ncc12` [Example 7, 1-(5-chloro-2-cyclopropoxyphenyl)-3-methyl-6-(pyrazolo[1,5-a]pyrimidin-3-yl)-1H-pyrazolo[4,3-c]pyridine]: the IC50 is ≤ 5.01 nM at JAK 2, ≤ 5.01 nM on JAK 3, 5.01 to 50.1 nM on JAK 1 and 5.01 to 50.1 nM at TYK2.
Turning to `COc1ccc(OC)c(-n2nc(C)c3cnc(-c4cnn5cccnc45)cc32)c1` [Example 8, 1-(2,5-dimethoxyphenyl)-3-methyl-6-(pyrazolo[1,5-a]pyrimidin-3-yl)-1H-pyrazolo[4,3-c]pyridine], the IC50 is ≤ 5.01 nM at JAK 2, 5.01 to 50.1 nM on JAK 3, 5.01 to 50.1 nM at JAK 1 and > 50.1 nM at TYK2.
For the molecule `COc1ccc(S(=O)(=O)CCCO)cc1-n1nc(C)c2cnc(-c3cnn4cccnc34)cc21` [Example 9, 3-((4-methoxy-3-(3-methyl-6-(pyrazolo[1,5-a]pyrimidin-3-yl)-1H-pyrazolo[4,3-c]pyridin-1-yl)phenyl)sulfonyl)propan-1-ol], the IC50 was ≤ 5.01 nM on JAK 2, 5.01 to 50.1 nM on JAK 3, 5.01 to 50.1 nM at JAK 1 and > 50.1 nM at TYK2.
Take `CCCS(=O)(=O)c1ccc(OC)c(-n2nc(C)c3cnc(-c4cnn5cccnc45)cc32)c1` [Example 10, 1-(2-methoxy-5-(propylsulfonyl)phenyl)-3-methyl-6-(pyrazolo[1,5-a]pyrimidin-3-yl)-1H-pyrazolo[4,3-c]pyridine]: the IC50 was 5.01 to 50.1 nM on JAK 2, ≤ 5.01 nM at JAK 3, 5.01 to 50.1 nM at JAK 1 and > 50.1 nM on TYK2.
Consider `Cc1nn(-c2cc(Cl)ccc2OC(F)F)c2cc(-c3cnn4cccnc34)ncc12` [Example 11, 1-(5-chloro-2-(difluoromethoxy)phenyl)-3-methyl-6-(pyrazolo[1,5-a]pyrimidin-3-yl)-1H-pyrazolo[4,3-c]pyridine], for which the IC50 at JAK 2 was ≤ 5.01 nM; at JAK 3, ≤ 5.01 nM; on JAK 1, ≤ 5.01 nM; at TYK2, 5.01 to 50.1 nM.
Consider `Cc1nn(-c2cc(Cl)ccc2O)c2cc(-c3cnn4cccnc34)ncc12` [Example 12, 4-chloro-2-(3-methyl-6-(pyrazolo[1,5-a]pyrimidin-3-yl)-1H-pyrazolo[4,3-c]pyridin-1-yl)phenol], for which the IC50 on JAK 2 is ≤ 5.01 nM; at JAK 3 it was 5.01 to 50.1 nM; at JAK 1 it was 5.01 to 50.1 nM; on TYK2 it was 5.01 to 50.1 nM.
Consider `CSc1ccc(OC(F)F)c(-n2nc(C)c3cnc(-c4cnn5cccnc45)cc32)c1` [Example 13, 1-(2-(difluoromethoxy)-5-(methylthio)phenyl)-3-methyl-6-(pyrazolo[1,5-a]pyrimidin-3-yl)-1H-pyrazolo[4,3-c]pyridine], for which the IC50 was ≤ 5.01 nM on JAK 2, ≤ 5.01 nM at JAK 3, ≤ 5.01 nM at JAK 1 and 5.01 to 50.1 nM on TYK2.
With `CNS(=O)(=O)c1ccc(OC)c(-n2nc(C)c3cnc(-c4cnn5cccnc45)cc32)c1` [Example 14, 4-methoxy-N-methyl-3-(3-methyl-6-(pyrazolo[1,5-a]pyrimidin-3-yl)-1H-pyrazolo[4,3-c]pyridin-1-yl)benzenesulfonamide], the IC50 at JAK 2 was ≤ 5.01 nM; at JAK 3 it was ≤ 5.01 nM; on JAK 1, 5.01 to 50.1 nM; at TYK2, 5.01 to 50.1 nM.

These data come from US20240279240A1, “HETEROCYCLIC DERIVATIVES AS JANUS KINASE INHIBITORS” (CHIESI FARMACEUTICI S.P.A., priority 2021, published 2024).
